Counter-ions that a name gives are not always drawn.
Legend:
resting GPIIb/IIIa = molecular target: T1, resting GPIIb/IIIa (Homo sapiens, UniProt P05106+P08514); assay: Test 2: suppression activity of fibrinogen adhesion of prostaglandin E1 (PGE1)-treated platelet; format: cell-based; conditions: for IC50: washed PGE1 (1 μM)-treated platelets, plates coated with human fibrinogen 1 μg/well, 37° C. 30 min, read-out: R Suppression of fibrinogen adhesion IC50
T1 construct: Platelet rich plasma (PRP) was prepared by centrifugation of whole blood; endogenous in cells; host or cells: washed platelets from venous blood, kept resting with 1 μM PGE1
T1 sequence (P08514 32-887 limits assumed): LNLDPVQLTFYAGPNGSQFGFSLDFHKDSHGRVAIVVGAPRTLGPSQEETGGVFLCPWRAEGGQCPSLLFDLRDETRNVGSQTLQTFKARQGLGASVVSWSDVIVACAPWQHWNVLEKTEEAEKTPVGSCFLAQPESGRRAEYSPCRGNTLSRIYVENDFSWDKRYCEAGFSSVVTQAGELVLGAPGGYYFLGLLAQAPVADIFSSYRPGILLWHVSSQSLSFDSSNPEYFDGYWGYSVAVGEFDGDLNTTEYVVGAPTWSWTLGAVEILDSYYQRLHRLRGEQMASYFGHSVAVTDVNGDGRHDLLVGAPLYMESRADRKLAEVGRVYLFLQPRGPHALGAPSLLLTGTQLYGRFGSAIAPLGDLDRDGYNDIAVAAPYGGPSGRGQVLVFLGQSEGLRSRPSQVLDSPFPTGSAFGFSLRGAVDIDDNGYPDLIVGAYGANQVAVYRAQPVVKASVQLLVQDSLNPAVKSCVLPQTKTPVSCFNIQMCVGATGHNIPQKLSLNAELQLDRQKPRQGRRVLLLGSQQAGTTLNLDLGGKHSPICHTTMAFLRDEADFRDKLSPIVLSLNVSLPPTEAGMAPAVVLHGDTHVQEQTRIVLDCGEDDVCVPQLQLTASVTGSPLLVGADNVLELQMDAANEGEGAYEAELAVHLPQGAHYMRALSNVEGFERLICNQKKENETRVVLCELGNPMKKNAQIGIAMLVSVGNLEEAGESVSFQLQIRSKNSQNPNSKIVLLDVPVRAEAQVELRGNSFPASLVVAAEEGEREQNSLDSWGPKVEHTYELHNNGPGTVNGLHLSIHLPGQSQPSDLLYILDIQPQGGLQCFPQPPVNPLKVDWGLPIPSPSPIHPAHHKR
T1 sequence (P08514 891-1039 partner limits assumed): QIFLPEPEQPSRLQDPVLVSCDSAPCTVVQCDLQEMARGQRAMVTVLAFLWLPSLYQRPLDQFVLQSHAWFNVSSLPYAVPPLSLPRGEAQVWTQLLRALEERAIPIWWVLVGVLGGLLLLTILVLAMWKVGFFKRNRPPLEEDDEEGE
T1 sequence (P05106 27-788): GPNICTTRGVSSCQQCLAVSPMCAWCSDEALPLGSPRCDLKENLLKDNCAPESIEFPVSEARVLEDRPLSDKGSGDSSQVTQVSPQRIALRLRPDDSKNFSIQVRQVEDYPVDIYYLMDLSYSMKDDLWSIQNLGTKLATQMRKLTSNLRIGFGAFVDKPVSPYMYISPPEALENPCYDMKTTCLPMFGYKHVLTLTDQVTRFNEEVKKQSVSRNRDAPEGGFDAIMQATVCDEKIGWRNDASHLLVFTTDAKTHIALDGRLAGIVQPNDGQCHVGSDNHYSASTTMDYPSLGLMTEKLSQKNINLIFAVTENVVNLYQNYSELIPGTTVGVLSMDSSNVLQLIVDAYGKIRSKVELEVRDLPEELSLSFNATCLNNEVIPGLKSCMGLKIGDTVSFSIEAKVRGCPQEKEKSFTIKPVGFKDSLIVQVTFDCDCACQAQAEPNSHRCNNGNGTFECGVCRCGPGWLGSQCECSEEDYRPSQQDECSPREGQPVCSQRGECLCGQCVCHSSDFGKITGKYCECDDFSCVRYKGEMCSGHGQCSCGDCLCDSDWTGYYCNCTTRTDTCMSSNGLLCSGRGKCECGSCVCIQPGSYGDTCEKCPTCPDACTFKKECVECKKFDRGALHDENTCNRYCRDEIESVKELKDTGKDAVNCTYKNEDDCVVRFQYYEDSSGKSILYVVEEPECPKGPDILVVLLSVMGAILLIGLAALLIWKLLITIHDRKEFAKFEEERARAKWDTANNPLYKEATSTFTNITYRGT
Experimental: Test 2: Measurement of Suppression Activity of Fibrinogen Adhesion of Prostaglandin E1 (PGE 1)-treated Platelet
Venous blood was collected onto sodium citrate. Platelet rich plasma (PRP) was prepared by centrifugation of whole blood. Platelets were washed with modified HEPES-Tyrode's buffer (129 mM NaCl, 2.8 mM KCl, 0.8 mM KH2PO4, 8.9 mM NaHCO3, 0.8 mM MgCl2, 10 mM HEPES, 5.5 mM Glucose, 0.1% BSA,.pH 7.4) containing 1μM PGE1. After washing, platelets were suspended in modified HEPES-Tyrode's buffer containing 1.0 mM CaCl2 and 1 μM PGE1 and the number of platelet was adjusted.
Adhesion assay was carried out as follows. 96-well microtiter plates were coated with 1 μg/well of human fibrinogen. The plates were then blocked with 1% BSA. After washing the plates with the buffer, the washed platelets were added to each well in the presence of the test compound or buffer and incubated at 37° C. for 30 min. The plates were then washed three times with buffer. The number of adhered cells was determined by measuring the acid phosphatase activity of cells using a microplate reader at 410 nm. Percent inhibition of adhesion in the sample treated with the test compound was calculated by comparison with the adhesion in absence of the test compound. The activity of the test compound was represented by a value of IC50, i.e. a dose required for the […] inhibition of the platelet adhesion.

active GPIIb/IIIa = molecular target: T2, active GPIIb/IIIa (Homo sapiens, UniProt P05106+P08514); assay: Test 1: inhibitory activity of adenosine diphosphate (ADP)-induced platelet aggregation in platelet rich plasma; format: cell-based; conditions: for R/A ratio: IC50 (R) of Test 2 / IC50 (A) of Test 1, selective binding ability toward the active GPIIb/IIIa; for IC50: human PRP 3×10^8 platelets/ml, 37° C., read-out: A Inhibition of platelet aggregation IC50
T2 construct: Platelet rich plasma (PRP) containing 3×10^8 platelets/ml was prepared from human blood; endogenous in cells
T2 sequence (P08514 32-887 limits assumed): as the sequence (P08514 32-887 limits assumed) above
T2 sequence (P08514 891-1039 partner limits assumed): as the sequence (P08514 891-1039 partner limits assumed) above
T2 sequence (P05106 27-788): as the sequence (P05106 27-788) above
Experimental: Test 1: Measurement of Inhibitory Activity of Adenosine Diphosphate (ADP)-induced Platelet Aggregation
Platelet rich plasma (PRP) containing 3×10^8 platelets/ml was prepared from human blood. To 225 μl of PRP, 25 μl of a solution of the test compound was added and stirred at 37° C. for 2 min. To the solution, 5 μl of ADP (final concentration: 2.5 μM) was added as an aggregation inducing agent. Aggregation was measured with aggregometer (NBS HEMA-TRACER 801). The procedure was as follows. Light transmittance of PRP was calibrated to 100%. PRP was incubated in the aggregometer at 37° C. for 2 min. ADP was added […], and the change in light transmittance was monitored by PL500 recorder (Yokogawa, Japan). Percent inhibition of aggregation by the test compound was calculated by comparison with the aggregation in the absence of the test compound. The activity of an […] (test compound) is represented as a value of IC50, i.e., a dose required for the […] inhibition of the platelet aggregation.

monkey thrombus model = assay: Accumulation of radioactivity at thrombus, blood and muscle in monkey thrombus model (PET, gamma counter); format: in vivo, monkey (Macaca fasciculans); conditions: 90 min after the administration
Description: Kinetics of the labeled compounds in the body of monkey (Macaca fasciculans) was studied by using the contrast mediums labeled with [^11C] and [^18F] prepared in Production Examples 21 and 22, respectively.
According to the canine saphenous vein (which is formed with a confluence of dorsal digital veins of hallux and arcuate veins of foot, and ascends in front of a medial malleolus and behind of a medial condyle of femur, crosses a saphenous opening of patellar retinaculum and pour into a femoral vein over a femoral triangle) thrombosis model (Knight L. C. et al., Thromb Haemost., 1998, 80, p.845-851 and Lister-James L. et al., J. Nucl Med. 1996, 37, p.775-781), a platinum embolization coil (Boston Scientific Japan) was inserted and placed in the right femoral vein of the monkey while anesthetized and wound was sutured.
Three hours after the insertion of the coil, the contrast mediums prepared in Production Examples 21 and 22, respectively, were administered intravenously (740 MBq/2 ml-saline). Imaging was performed for 90 min with a high-resolution positron emission tomography (PET) scanner (SHR-7700, Hamamatsu Photonics K.K., Japan). After PET measurement, the coil was removed, and the right femoral vein was collected to obtain a thrombus sample. Thigh muscle was collected, and saphenous artery was punctured to collect an arterial blood sample. The thrombus, thigh muscle and arterial blood samples were weighed and their radioactivity was measured with gamma counter (1480 WIZARD, Wallac Oy, Finland).
Data was calculated as percent of injected dose ([…]).

[1] = listed as Production Example 21

Compound: COc1ccc(CCC(=O)N[C@@H](CNC(=O)[C@@H]2CCCN(C(=O)CCC3CCNCC3)C2)C(=O)O)cc1 [Ex. 11]
- IC50 (resting GPIIb/IIIa): 479 nM
- R/A ratio (active GPIIb/IIIa): 6.5
- IC50 (active GPIIb/IIIa; ADP final concentration 2.5 μM): 88 nM

Compound: CC(C)CC(=O)Nc1cccc(C(=O)N[C@@H](CNC(=O)[C@H]2CCCN(C(=O)CCC3CCNCC3)C2)C(=O)O)c1 [Ex. 20]
- IC50 (resting GPIIb/IIIa): 239 nM
- R/A ratio (active GPIIb/IIIa): 8.0
- IC50 (active GPIIb/IIIa; ADP final concentration 2.5 μM): 30 nM

Compound: CC(=O)OCC(=O)N[C@H](CNC(=O)[C@@H]1CCCN(C(=O)CCC2CCNCC2)C1)C(=O)O [Ex. 9]
- IC50 (resting GPIIb/IIIa): 727 nM
- R/A ratio (active GPIIb/IIIa): 13
- IC50 (active GPIIb/IIIa; ADP final concentration 2.5 μM): 55 nM

Compound: CC(C)CCC(=O)Nc1cccc(C(=O)N[C@@H](CNC(=O)[C@H]2CCCN(C(=O)CCC3CCNCC3)C2)C(=O)O)c1 [Ex. 19]
- IC50 (resting GPIIb/IIIa): 151 nM
- R/A ratio (active GPIIb/IIIa): 17
- IC50 (active GPIIb/IIIa; ADP final concentration 2.5 μM): 9.1 nM

Compound: CN(CC(=O)c1ccc(OCC(=O)O)c(OCCF)c1)C(=O)/C=C/C1CCNCC1 [Ex. 15]
- IC50 (resting GPIIb/IIIa): 6210 nM
- R/A ratio (active GPIIb/IIIa): 19
- IC50 (active GPIIb/IIIa; ADP final concentration 2.5 μM): 320 nM

Compound: CC(C)CCCOc1ccc(C(=O)N[C@@H](CNC(=O)[C@H]2CCCN(C(=O)CCC3CCNCC3)C2)C(=O)O)cc1 [Ex. 18]
- IC50 (resting GPIIb/IIIa): 48 nM
- R/A ratio (active GPIIb/IIIa): 7.9
- IC50 (active GPIIb/IIIa; ADP final concentration 2.5 μM): 6.1 nM

Compound: COc1ccc(CCC(=O)N[C@H](CNC(=O)[C@@H]2CCCN(C(=O)CCC3CCNCC3)C2)C(=O)O)cc1 [Ex. 7]
- IC50 (resting GPIIb/IIIa): 533 nM
- R/A ratio (active GPIIb/IIIa): 15
- IC50 (active GPIIb/IIIa; ADP final concentration 2.5 μM): 35 nM

Compound: Echistatin [compound 1, reference compound]
- R Suppression of fibrinogen adhesion IC50 (resting GPIIb/IIIa; PGE1-treated platelets, human fibrinogen coated plates, value printed in μg/ml): 0.14 µg/mL
- R/A ratio (active GPIIb/IIIa): 0.38
- A Inhibition of platelet aggregation IC50 (active GPIIb/IIIa; human PRP, ADP final concentration 2.5 μM, value printed in μg/ml): 0.36 µg/mL

Compound: CCC(=O)N[C@@H](CNC(=O)[C@@H]1CCCN(C(=O)CCC2CCNCC2)C1)C(=O)O [Ex. 8]
- IC50 (resting GPIIb/IIIa): 1520 nM
- IC50 (active GPIIb/IIIa; ADP final concentration 2.5 μM): 49 nM

Compound: [11CH3]N(CC(=O)c1ccc(OCC(=O)O)c(OCC(=O)O)c1)C(=O)/C=C/C1CCNCC1 [Production Ex. 21, 2,2′-[[4-({[^11C]methyl[(2E)-3-(4-piperidinyl)-2-propenoyl]amino}acetyl)-1,2-phenylene]bis(oxy)]diacetic acid trifluoroacetate]
- Thrombus/Blood ratio (monkey thrombus model): 24.2 ± 17.9
- Thrombus/Muscle ratio (monkey thrombus model): 94.8 ± 65.0
- Thrombus/Blood ratio (monkey thrombus model; [1]): approximately 24
- Thrombus/Muscle ratio (monkey thrombus model; [1]): approximately 95
- Blood accumulation of radioactivity (monkey thrombus model; intravenous 740 MBq, arterial blood): 0.084 ± 0.012 % ID/g/kg
- Muscle accumulation of radioactivity (monkey thrombus model; intravenous 740 MBq, thigh muscle): 0.021 ± 0.005 % ID/g/kg
- Thrombus accumulation of radioactivity (monkey thrombus model; intravenous 740 MBq, thrombus): 1.902 ± 1.132 % ID/g/kg

Compound: CCCCCCC(=O)N[C@H](CNC(=O)[C@@H]1CCCN(C(=O)CCC2CCNCC2)C1)C(=O)O [Ex. 16]
- IC50 (resting GPIIb/IIIa): 198 nM
- R/A ratio (active GPIIb/IIIa): 6.1
- IC50 (active GPIIb/IIIa; ADP final concentration 2.5 μM): 32.4 nM

Compound: CC(C)[C@H](NC(=O)[C@H](CC(=O)O)NC(=O)CCCOc1ccc(C(=N)N)cc1)C(=O)O [Reference Ex. 4, FK633, reference compound]
- IC50 (resting GPIIb/IIIa): 1320 nM
- R/A ratio (active GPIIb/IIIa): 13
- IC50 (active GPIIb/IIIa; ADP final concentration 2.5 μM): 103 nM

Compound: N=C(N)c1ccc(C(=O)N[C@@H](Cc2ccc(O)cc2)C(=O)N2CCC(OCC(=O)O)CC2)cc1 [Reference Ex. 3, Lamifiban, reference compound]
- IC50 (resting GPIIb/IIIa): 80 nM
- R/A ratio (active GPIIb/IIIa): 1.8
- IC50 (active GPIIb/IIIa; ADP final concentration 2.5 μM): 45 nM

Compound: CC(=O)N[C@@H](CNC(=O)[C@H]1CCCN(C(=O)CCC2CCNCC2)C1)C(=O)O [Ex. 12]
- IC50 (resting GPIIb/IIIa): 5160 nM
- R/A ratio (active GPIIb/IIIa): 6.5
- IC50 (active GPIIb/IIIa; ADP final concentration 2.5 μM): 791 nM

Compound: N[C@@H](CNC(=O)[C@@H]1CCCN(C(=O)CCC2CCNCC2)C1)C(=O)O [Ex. 10]
- IC50 (resting GPIIb/IIIa): 2510 nM
- R/A ratio (active GPIIb/IIIa): 9.2
- IC50 (active GPIIb/IIIa; ADP final concentration 2.5 μM): 272 nM

Compound: N=C(N)c1ccc(OCC(=O)Nc2ccc(OCC(=O)O)c(C(=O)O)c2)cc1 [Ex. 4]
- IC50 (resting GPIIb/IIIa): 1630 nM
- R/A ratio (active GPIIb/IIIa): 6.3
- IC50 (active GPIIb/IIIa; ADP final concentration 2.5 μM): 260 nM

Compound: CC(=O)N[C@@H](CNC(=O)[C@@H]1CCCN(C(=O)/C=C/C2CCNCC2)C1)C(=O)O [Ex. 6]
- IC50 (resting GPIIb/IIIa): 434 nM
- R/A ratio (active GPIIb/IIIa): 7.8
- IC50 (active GPIIb/IIIa; ADP final concentration 2.5 μM): 56 nM

Compound: COC(=O)COc1ccc(C(=O)N[C@H](CNC(=O)[C@@H]2CCCN(C(=O)CCC3CCNCC3)C2)C(=O)O)cc1 [Ex. 17]
- IC50 (resting GPIIb/IIIa): 486 nM
- R/A ratio (active GPIIb/IIIa): 16
- IC50 (active GPIIb/IIIa; ADP final concentration 2.5 μM): 29.9 nM

Compound: COc1cc(C(=O)CN(C)C(=O)/C=C/C2CCNCC2)ccc1OCC(=O)O [Ex. 14]
- IC50 (resting GPIIb/IIIa): 4050 nM
- R/A ratio (active GPIIb/IIIa): 14
- IC50 (active GPIIb/IIIa; ADP final concentration 2.5 μM): 291 nM

Compound: CC(NCOc1ccc(C(=N)N)cc1)C(=O)N[C@@H](CC(=O)O)C(=O)N[C@@H](C(=O)N1CCS(=O)(=O)CC1)C(C)C (stereo partly drawn) [Ex. 3]
- IC50 (resting GPIIb/IIIa): 1350 nM
- R/A ratio (active GPIIb/IIIa): 18
- IC50 (active GPIIb/IIIa; ADP final concentration 2.5 μM): 73 nM

Compound: CN(CC(=O)c1ccc(OCC(=O)O)c(OCC(=O)O)c1)C(=O)/C=C/C1CCNCC1 [Ex. 1, 2,2′-{[4-([methyl[(2E)-3-(4-piperidinyl)-2-propenoyl]amino}acetyl)-1,2-phenylene]bis(oxy)]diacetic acid hydrochloride]
- IC50 (resting GPIIb/IIIa): 7900 nM
- R/A ratio (active GPIIb/IIIa): 59
- IC50 (active GPIIb/IIIa; ADP final concentration 2.5 μM): 135 nM
